Target: human σ2 receptor (TMEM97) (Homo sapiens, UniProt Q5BJF2)
Experiment: biochemical
Format: Expi293 membranes
Settings: read-out: % of control remaining

Sequence of human σ2 receptor (TMEM97) (Q5BJF2 whole entry): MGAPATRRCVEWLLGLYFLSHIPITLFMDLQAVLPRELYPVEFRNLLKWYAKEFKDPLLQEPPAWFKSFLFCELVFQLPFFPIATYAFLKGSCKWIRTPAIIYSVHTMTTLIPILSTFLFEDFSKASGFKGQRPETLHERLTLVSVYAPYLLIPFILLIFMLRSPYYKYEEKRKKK

Row | remaining activity at 1 µM | SMILES
1 | 74.2% | CC[C@@H](C)NC(=O)[C@@H](C)N1CCC(c2c[nH]c3ccccc23)CC1 [ZINC000073649189]
2 | 86.9% | C[C@H](C(=O)NCc1cc(Br)cs1)N1CCCCCC1 [ZINC000074484650]
3 | 24.7% | Cc1noc(-c2cccnc2NC2CCC(N3CCCCC3)CC2)n1 (centres unmarked) [ZINC000080247921]
4 | 17.7% | O=C(Nc1cccc(OC(F)(F)F)c1)C(=O)N1CCC[C@@H](N2CCCC2)CC1 [ZINC000120571916]
5 | 65.7% | CN(C(=O)C[C@@H]1CSCCN1)[C@@H]1CCCN(c2cccnn2)C1 [ZINC000133744458]
6 | 21.7% | O=C(CCc1cc(Br)ccc1F)N1CC[C@@H](CN2CCCC2)C1 [ZINC000135482356]
7 | 53.9% | O=C(NCc1ccc(F)cc1C(F)(F)F)[C@@H]1CC12CCNCC2 [ZINC000136880129]
8 | 44.7% | COC(=O)[C@@H](C)CS(=O)(=O)N[C@@H]1CCN(CC2CCCC2)C1 [ZINC000152090354]
9 | 30.9% | CS[C@@H]1CCC[C@H](NC(=O)NC2CCN([C@@H]3CCCC[C@@H]3O)CC2)C1 [ZINC000155998528]
10 | 108% | CC(C)[C@H](C(=O)NC[C@H](C[C@@H](C)O)c1ccccc1)N1CCCCC1 [ZINC000159130997]
11 | 29.7% | FC(F)(F)c1ccc(-c2nc(CN3CC[C@H](N4CCCC4)C3)cs2)cc1 [ZINC000170742095]
12 | 96.3% | O=C(Nc1ccc2ncsc2c1)C(=O)N1CCCN(C2CCCC2)CC1 [ZINC000172648663]
13 | 98% | C[C@H](CCNC(=O)N1CCO[C@H]([C@@H]2CCCO2)C1)N1CCCCC1 [ZINC000182663590]
14 | 36.1% | Cc1ccc([N+](=O)[O-])cc1[C@H](C)N1C[C@H]2CCC[C@@H]2C1 [ZINC000182842742]

The next lines start with the compound.

Row | SMILES | remaining activity at 1 µM
15 | CC(C)CN1CCC(NC(=O)NNC(=O)C(=O)NC2CC2)CC1 [ZINC000045463977] | 107%
16 | CCCn1c(C)cc(/C=C(/C#N)C(=O)NCCN(C)Cc2ccccc2)c1C [ZINC000064804934] | 85%
17 | c1cncc(-c2nc(N3CCC[C@H](N4CCCC4)C3)c3ccccc3n2)c1 [ZINC000076836015] | 60.5%
18 | c1ccc(-c2csc(CN3CCC4(C3)OCCO4)c2)cc1 [ZINC000093013680] | 89.6%
19 | CC1CCC(N2CCN(CCOC(C)C)CC2)CC1 (centres unmarked) [ZINC000115566238] | 18.2%
20 | N#Cc1csc(CN2CCC[C@H]2Cc2ccccc2)c1 [ZINC000124982852] | 89.7%
21 | COc1ccccc1O[C@H](C)CN[C@@H](C)c1ccccc1OC [ZINC000129576345] | 14.2%
22 | CN1CCN(c2ncc(CN3CCN(CC4CC4)CC3)cn2)CC1 [ZINC000130668661] | 68.6%
23 | C[C@H](Cn1cc(Br)cn1)NCc1cn2cc(Cl)ccc2n1 [ZINC000131571127] | 76.6%
24 | C[C@@H](Cn1cc(Br)cn1)NCCOc1ccc2c(c1)OCO2 [ZINC000133991118] | 65.4%
25 | O=C(CN1CC[C@]2(CCOC2)C1)N[C@@H](Cc1ccccc1)c1ccccc1 [ZINC000153400973] | 99.4%
26 | Cc1cc(C(C)(C)C)ccc1OC[C@@H](O)CN1CC[C@]2(CCOC2)C1 [ZINC000153451054] | 17.2%
27 | C[C@H](N[C@@H](C)CN1CCN(C)CC1)c1ccc(-c2ccccc2)o1 [ZINC000155112667] | 33.8%
28 | C[C@H]1C[C@@H](NC(=O)C(=O)Nc2cnn(CC(F)F)c2)CN1C1CC1 [ZINC000158577469] | 111%
29 | COC(=O)[C@@H](NCC[C@H](C)N(C)Cc1ccccc1)c1cccc(C#N)c1 [ZINC000176805277] | 41.6%
30 | C[C@H](c1ccccn1)N1CC=C(c2ccc(O)cc2)CC1 [ZINC000176995469] | 61.4%
31 | O=C1Nc2ccccc2C12CCC(NCC1(O)CCOCC1)CC2 (centres unmarked) [ZINC000178638284] | 111%
32 | CCN(CC)[C@H]1CCN(Cc2ncc(Cl)cc2Cl)C1 [ZINC000182372239] | 34.6%
